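Five concentrations, 48 hours, 96-well plates. GI50 is the concentration that inhibits growth by half. TGI: concentration producing complete growth inhibition.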
Experiments:
Test in all cases: DTP human tumour cell line panel, 48 h
[1] = test system: 786-0 renal
[2] = test system: A498 renal
[3] = test system: A549 NSCLC
[4] = test system: ACHN renal
[5] = test system: BT-549 breast
[6] = test system: CAKI-1 renal
[7] = test system: CCRF-CEM leukemia
[8] = test system: COLO 205 colon
[9] = test system: DU-145 prostate
[10] = test system: EKVX NSCLC
[11] = test system: HCC-2998 colon
[12] = test system: HCT-116 colon
[13] = test system: HCT-15 colon
[14] = test system: HL-60(TB) leukemia
[15] = test system: HOP-62 NSCLC
[16] = test system: HOP-92 NSCLC
[17] = test system: HS 578T breast
[18] = test system: HT29 colon
[19] = test system: IGROV1 ovarian
[20] = test system: K-562 leukemia
[21] = test system: KM12 colon
[22] = test system: LOX IMVI melanoma
[23] = test system: M14 melanoma
[24] = test system: MALME-3M melanoma
[25] = test system: MCF7 breast
[26] = test system: MDA-MB-231 breast
[27] = test system: MDA-MB-435
[28] = test system: MDA-MB-468 breast
[29] = test system: MOLT-4 leukemia
[30] = test system: NCI-H226 lung
[31] = test system: NCI-H23 lung
[32] = test system: NCI-H460 lung
[33] = test system: NCI-H522 lung
[34] = test system: NCI/ADR-RES ovarian
[35] = test system: OVCAR-3 ovarian
[36] = test system: OVCAR-4 ovarian
[37] = test system: OVCAR-5 ovarian
[38] = test system: OVCAR-8 ovarian
[39] = test system: PC-3 prostate
[40] = test system: RPMI-8226 leukemia
[41] = test system: RXF 393 renal
[42] = test system: SF-268 CNS
[43] = test system: SF-295 CNS
[44] = test system: SF-539 CNS
[45] = test system: SK-MEL-2 melanoma
[46] = test system: SK-MEL-28 melanoma
[47] = test system: SK-MEL-5 melanoma
[48] = test system: SK-OV-3 ovarian
[49] = test system: SN12C renal
[50] = test system: SNB-19 CNS
[51] = test system: SNB-75 CNS
[52] = test system: SR leukemia
[53] = test system: SW-620 colon
[54] = test system: T-47D breast
[55] = test system: TK-10 renal
[56] = test system: U251 CNS
[57] = test system: UACC-257 melanoma
[58] = test system: UACC-62 melanoma
[59] = test system: UO-31 renal

Molecule CCOc1ccc2ncc(C#Cc3cncc(C(=O)Nc4ccc(CN5CCN(C)CC5)c(C(F)(F)F)c4)c3)n2n1 has a GI50 [1] of 1.56 µM, a TGI [1] of 2.95 µM and a GI50 [2] of 6.96 µM. The TGI [2] was 24.3 µM, the GI50 [3] was 1.16 µM and the TGI [3] was 22.7 µM. For the same molecule, the GI50 [4] was 0.561 µM, the TGI [4] was 15 µM and the GI50 [5] was 1.79 µM. It also gave a TGI [5] of 12.4 µM, a GI50 [6] of 0.79 µM and a TGI [6] of 13.2 µM. The GI50 [7] was 0.0642 µM, the TGI [7] was > 21.2 µM and the GI50 [8] was 0.272 µM. It also gave a TGI [8] of 0.883 µM, a GI50 [9] of 1.1 µM and a TGI [9] of 17.3 µM. For the same molecule, the GI50 [10] was 0.704 µM, the TGI [10] was 17.8 µM and the GI50 [11] was 2.34 µM. The TGI [11] was 20.1 µM, the GI50 [12] was 0.225 µM and the TGI [12] was 1.56 µM. It also gave a GI50 [13] of 0.357 µM, a TGI [13] of 1.66 µM and a GI50 [14] of 0.521 µM. The TGI [14] was 16.3 µM, the GI50 [15] was 1.25 µM and the TGI [15] was 14.4 µM. The GI50 [16] was 0.206 µM, the TGI [16] was 1.34 µM and the GI50 [17] was 0.283 µM. For the same molecule, the TGI [17] was 3.11 µM, the GI50 [18] was 0.475 µM and the TGI [18] was 2.39 µM. The GI50 [19] was 2.18 µM, the TGI [19] was 19.1 µM and the TGI [20] was 1.36 µM. For the same molecule, the TGI [21] was 10.5 µM, the GI50 [22] was 0.608 µM and the TGI [22] was 1.94 µM. The GI50 [23] was 0.416 µM, the TGI [23] was 1.79 µM and the GI50 [24] was 0.353 µM. For the same molecule, the TGI [24] was 1.71 µM, the GI50 [25] was 0.208 µM and the TGI [25] was 1.74 µM. The GI50 [26] was 0.362 µM, the TGI [26] was 2.87 µM and the GI50 [27] was 0.592 µM. For the same molecule, the TGI [27] was 5.15 µM, the GI50 [28] was 1.66 µM and the TGI [28] was 11.1 µM. It also gave a GI50 [29] of 0.316 µM, a TGI [29] of 3.35 µM and a GI50 [30] of 0.151 µM. It also gave a TGI [30] of 1.85 µM, a GI50 [31] of 0.393 µM and a TGI [31] of 4.9 µM. The GI50 [32] was 0.534 µM, the TGI [32] was 16.9 µM and the GI50 [33] was 1.4 µM. For the same molecule, the TGI [33] was 21.9 µM, the GI50 [34] was 1.16 µM and the TGI [34] was 2.66 µM. The GI50 [35] was 4.5 µM, the TGI [35] was 24.6 µM and the GI50 [36] was 3.56 µM. The TGI [36] was 28.7 µM, the GI50 [37] was 0.802 µM and the TGI [37] was 12 µM. The GI50 [38] was 3.21 µM, the TGI [38] was 10.6 µM and the GI50 [39] was 1.52 µM. For the same molecule, the TGI [39] was 19.2 µM, the GI50 [40] was 1.06 µM and the TGI [40] was 4.38 µM. For the same molecule, the GI50 [41] was 0.89 µM, the TGI [41] was 2.34 µM and the GI50 [42] was 1.92 µM. For the same molecule, the TGI [42] was 17.6 µM, the GI50 [43] was 0.918 µM and the TGI [43] was 19 µM. The GI50 [44] was 0.143 µM, the TGI [44] was 0.755 µM and the GI50 [45] was 1.34 µM. It also gave a TGI [45] of 11.9 µM, a GI50 [46] of 1.3 µM and a TGI [46] of 2.66 µM. The GI50 [47] was 1.89 µM, the TGI [47] was 7.25 µM and the GI50 [48] was 4.64 µM. The TGI [48] was 19.7 µM, the GI50 [49] was 0.643 µM and the TGI [49] was 11.7 µM. The GI50 [50] was 6.37 µM, the TGI [50] was 21.7 µM and the GI50 [51] was 3.31 µM. It also gave a TGI [51] of 16.3 µM, a GI50 [52] of 0.723 µM and a TGI [52] of 9.4 µM. The GI50 [53] was 0.287 µM, the TGI [53] was 2.3 µM and the GI50 [54] was 17.8 µM. The TGI [54] was > 70.5 µM, the GI50 [55] was 8.09 µM and the TGI [55] was 23.3 µM. It also gave a GI50 [56] of 11.7 µM, a TGI [56] of 30.9 µM and a GI50 [57] of 2.16 µM. The TGI [57] was 11.4 µM, the GI50 [58] was 9.92 µM and the TGI [58] was 24.5 µM. The GI50 [59] was 2.2 µM and the TGI [59] was 13.7 µM.

— PubChem BioAssay (NCI)
